Read-outs that look alike come from different tables or passages of the source.

One experiment addresses ACC1 (Homo sapiens, UniProt Q13085). Description: In vitro ACC1 inhibition assay (ADP-Glo). In kind it is biochemical. In short, it runs like this: (§1)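 Enzyme (human ACC1 or ACC2) and compound, serially diluted 1:3 over 11 points from a 600 uM DMSO stock, were preincubated 15 min before substrate addition.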
Background: ADP-Glo first removes unused ATP, then detects ADP through luciferase.

A further experiment addresses ACC2 (Homo sapiens, UniProt O00763). In words: In vitro ACC2 inhibition assay (ADP-Glo). Format: biochemical. An outline of the steps: as §1

ACC2, sequence (O00763 whole entry, species assumed): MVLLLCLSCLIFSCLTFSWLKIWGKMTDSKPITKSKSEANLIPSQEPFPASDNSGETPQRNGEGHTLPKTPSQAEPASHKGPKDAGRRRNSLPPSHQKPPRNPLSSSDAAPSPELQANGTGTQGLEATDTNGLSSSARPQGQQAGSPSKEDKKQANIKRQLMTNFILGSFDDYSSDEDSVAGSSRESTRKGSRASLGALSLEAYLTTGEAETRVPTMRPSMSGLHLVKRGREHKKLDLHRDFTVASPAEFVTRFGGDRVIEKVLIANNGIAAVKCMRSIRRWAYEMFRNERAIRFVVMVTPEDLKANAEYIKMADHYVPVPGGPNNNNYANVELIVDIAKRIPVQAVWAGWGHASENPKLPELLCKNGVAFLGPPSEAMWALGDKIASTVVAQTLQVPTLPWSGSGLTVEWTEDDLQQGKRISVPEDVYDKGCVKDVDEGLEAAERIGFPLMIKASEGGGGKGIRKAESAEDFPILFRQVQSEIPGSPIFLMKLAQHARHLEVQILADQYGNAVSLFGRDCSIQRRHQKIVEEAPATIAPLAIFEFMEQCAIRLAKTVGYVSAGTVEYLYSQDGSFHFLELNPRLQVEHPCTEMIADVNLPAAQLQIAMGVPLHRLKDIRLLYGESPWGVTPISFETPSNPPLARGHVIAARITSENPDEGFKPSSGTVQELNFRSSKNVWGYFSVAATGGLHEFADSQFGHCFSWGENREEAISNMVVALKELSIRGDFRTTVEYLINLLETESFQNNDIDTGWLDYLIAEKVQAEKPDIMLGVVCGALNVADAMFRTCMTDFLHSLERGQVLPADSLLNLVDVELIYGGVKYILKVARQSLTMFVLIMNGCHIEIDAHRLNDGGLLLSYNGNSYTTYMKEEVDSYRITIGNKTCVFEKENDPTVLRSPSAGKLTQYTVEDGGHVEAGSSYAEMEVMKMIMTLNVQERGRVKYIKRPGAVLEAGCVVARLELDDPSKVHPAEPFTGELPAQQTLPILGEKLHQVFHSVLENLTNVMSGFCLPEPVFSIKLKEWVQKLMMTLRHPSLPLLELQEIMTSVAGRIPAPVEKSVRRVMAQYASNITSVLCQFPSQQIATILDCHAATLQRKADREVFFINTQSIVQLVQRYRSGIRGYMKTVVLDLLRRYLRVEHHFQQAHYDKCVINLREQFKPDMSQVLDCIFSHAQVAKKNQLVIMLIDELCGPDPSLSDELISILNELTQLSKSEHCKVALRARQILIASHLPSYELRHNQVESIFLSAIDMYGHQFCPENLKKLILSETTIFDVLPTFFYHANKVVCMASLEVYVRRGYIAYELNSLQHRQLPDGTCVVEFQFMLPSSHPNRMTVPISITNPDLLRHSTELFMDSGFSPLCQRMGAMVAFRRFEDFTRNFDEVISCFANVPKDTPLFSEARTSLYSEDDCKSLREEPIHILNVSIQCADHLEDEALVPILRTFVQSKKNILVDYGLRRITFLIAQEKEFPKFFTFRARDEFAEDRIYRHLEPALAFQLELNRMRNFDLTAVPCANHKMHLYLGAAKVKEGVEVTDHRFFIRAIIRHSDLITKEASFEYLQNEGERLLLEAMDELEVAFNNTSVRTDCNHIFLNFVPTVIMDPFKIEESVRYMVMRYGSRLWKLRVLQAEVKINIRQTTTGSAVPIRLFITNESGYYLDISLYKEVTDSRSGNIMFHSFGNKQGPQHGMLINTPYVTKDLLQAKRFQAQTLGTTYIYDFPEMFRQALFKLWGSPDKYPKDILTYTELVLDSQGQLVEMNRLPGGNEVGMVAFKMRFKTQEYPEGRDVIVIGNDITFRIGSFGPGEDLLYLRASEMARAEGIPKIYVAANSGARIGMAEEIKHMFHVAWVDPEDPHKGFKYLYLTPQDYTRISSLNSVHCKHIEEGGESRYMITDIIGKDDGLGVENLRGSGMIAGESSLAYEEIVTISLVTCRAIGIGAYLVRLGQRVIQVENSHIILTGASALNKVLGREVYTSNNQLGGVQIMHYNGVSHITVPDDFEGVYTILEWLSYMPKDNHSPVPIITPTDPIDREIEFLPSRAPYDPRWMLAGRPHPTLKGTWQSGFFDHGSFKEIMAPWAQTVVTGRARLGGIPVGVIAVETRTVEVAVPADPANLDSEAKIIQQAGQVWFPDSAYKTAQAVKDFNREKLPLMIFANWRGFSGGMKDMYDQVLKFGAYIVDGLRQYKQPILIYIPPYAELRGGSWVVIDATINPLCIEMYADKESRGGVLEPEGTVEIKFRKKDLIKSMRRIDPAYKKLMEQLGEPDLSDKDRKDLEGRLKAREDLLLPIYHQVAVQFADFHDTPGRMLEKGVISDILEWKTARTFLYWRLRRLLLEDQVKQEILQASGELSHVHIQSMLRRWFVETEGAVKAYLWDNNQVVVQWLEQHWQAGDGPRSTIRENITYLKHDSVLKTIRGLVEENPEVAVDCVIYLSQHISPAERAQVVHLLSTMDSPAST

Regarding `Cc1c(-c2ncco2)sc2c1c(=O)n(C(C)(C)C(=O)O)c(=O)n2C[C@H](OC[C@@H](C)O)c1ccccc1` [I-179, 2-[1-[(2R)-2-[(2R)-2-hydroxypropoxy]-2-phenylethyl]-5-methyl-6-(1,3-oxazol-2-yl)-2,4-dioxo-1H,2H,3H,4H-thieno[2,3-d]pyrimidin-3-yl]-2-methylpropanoic acid], the IC50 at ACC1 (read-out: ACC1) and on ACC2 (read-out: ACC2) was below 100 nM each time.

`CCc1ccccc1[C@H](Cn1c(=O)n(C(C)(C)C(=O)O)c(=O)c2c(C)c(-c3ncco3)sc21)OC(C)C` [I-180, 2-[1-[(2R)-2-(2-ethylphenyl)-2-(propan-2-yloxy)ethyl]-5-methyl-6-(1,3-oxazol-2-yl)-2,4-dioxo-1H,2H,3H,4H-thieno[2,3-d]pyrimidin-3-yl]-2-methylpropanoic acid]: the IC50 at ACC1 (read-out: ACC1) and on ACC2 (read-out: ACC2) was below 100 nM in each case.

In the case of `COc1ccccc1[C@H](Cn1c(=O)n(C(C)(C)C(=O)N2CCC2)c(=O)c2c(C)c(-c3ncco3)sc21)OC(C)C` [I-237, 3-[1-(azetidin-1-yl)-2-methyl-1-oxopropan-2-yl]-1-[(2R)-2-(2-methoxyphenyl)-2-(propan-2-yloxy)ethyl]-5-methyl-6-(1,3-oxazol-2-yl)-1H,2H,3H,4H-thieno[2,3-d]pyrimidine-2,4-dione], the IC50 on ACC1 (read-out: ACC1) and at ACC2 (read-out: ACC2) was below 100 nM throughout.

Take `COc1ccccc1[C@H](Cn1c(=O)n(C(C)(C)C(=O)N2CCCC2)c(=O)c2c(C)c(-c3ncco3)sc21)OC(C)C` [I-238, 1-[(2R)-2-(2-methoxyphenyl)-2-(propan-2-yloxy)ethyl]-5-methyl-3-[2-methyl-1-oxo-1-(pyrrolidin-1-yl)propan-2-yl]-6-(1,3-oxazol-2-yl)-1H,2H,3H,4H-thieno[2,3-d]pyrimidine-2,4-dione]: the IC50 on ACC1 (read-out: ACC1) and on ACC2 (read-out: ACC2) was below 100 nM throughout.

For the compound `COc1ccccc1[C@H](Cn1c(=O)n(C(C)(C)C(=O)N2CCCCC2)c(=O)c2c(C)c(-c3ncco3)sc21)OC(C)C` [I-239, 1-[(2R)-2-(2-methoxyphenyl)-2-(propan-2-yloxy)ethyl]-5-methyl-3-[2-methyl-1-oxo-1-(piperidin-1-yl)propan-2-yl]-6-(1,3-oxazol-2-yl)-1H,2H,3H,4H-thieno[2,3-d]pyrimidine-2,4-dione], the IC50 on ACC1 (read-out: ACC1) and on ACC2 (read-out: ACC2) was below 100 nM in each case.

Turning to `COc1ccccc1[C@H](Cn1c(=O)n(C(C)(C)C(=O)N2CC(O)C2)c(=O)c2c(C)c(-c3ncco3)sc21)OC(C)C` [I-241, 3-[1-(3-hydroxyazetidin-1-yl)-2-methyl-1-oxopropan-2-yl]-1-[(2R)-2-(2-methoxyphenyl)-2-(propan-2-yloxy)ethyl]-5-methyl-6-(1,3-oxazol-2-yl)-1H,2H,3H,4H-thieno[2,3-d]pyrimidine-2,4-dione], the IC50 at ACC1 (read-out: ACC1) and on ACC2 (read-out: ACC2) was below 100 nM in each case.

As for `COc1ccccc1[C@H](Cn1c(=O)n(C(C)(C)C(=O)NC(C)C)c(=O)c2c(C)c(-c3ncco3)sc21)OC(C)C` [I-242, 2-[1-[(2R)-2-(2-methoxyphenyl)-2-(propan-2-yloxy)ethyl]-5-methyl-6-(1,3-oxazol-2-yl)-2,4-dioxo-1H,2H,3H,4H-thieno[2,3-d]pyrimidin-3-yl]-2-methyl-N-(propan-2-yl)propanamide], the IC50 at ACC1 (read-out: ACC1) and at ACC2 (read-out: ACC2) was below 100 nM each time.

`CCO[C@@H](Cn1c(=O)n(C(C)(C)C(=O)O)c(=O)c2c(C)c(-c3ncco3)sc21)c1ccccc1OC` [I-243, 2-[1-[(2R)-2-ethoxy-2-(2-methoxyphenyl)ethyl]-5-methyl-6-(1,3-oxazol-2-yl)-2,4-dioxo-1H,2H,3H,4H-thieno[2,3-d]pyrimidin-3-yl]-2-methylpropanoic acid]: the IC50 on ACC1 (read-out: ACC1) and at ACC2 (read-out: ACC2) was below 100 nM in each case.

For the compound `CCc1ccccc1[C@H](Cn1c(=O)n(C(C)(C)C(=O)O)c(=O)c2c(C)c(-c3ncco3)sc21)O[C@H]1CC[C@H](O)CC1` [I-244, 2-(1-((R)-2-(2-ethylphenyl)-2-(((1r,4R)-4-hydroxycyclohexyl)oxy)ethyl)-5-methyl-6-(oxazol-2-yl)-2,4-dioxo-1,2-dihydrothieno[2,3-d]pyrimidin-3(4H)-yl)-2-methylpropanoic acid], the IC50 on ACC1 (read-out: ACC1) and at ACC2 (read-out: ACC2) was below 100 nM each time.

With `CCc1ccccc1[C@H](Cn1c(=O)n(C(C)(C)C(=O)O)c(=O)c2c(C)c(-c3ncco3)sc21)O[C@H]1CC[C@@H](O)CC1` [I-245, 2-(1-((R)-2-(2-ethylphenyl)-2-(((1s,4S)-4-hydroxycyclohexyl)oxy)ethyl)-5-methyl-6-(oxazol-2-yl)-2,4-dioxo-1,2-dihydrothieno[2,3-d]pyrimidin-3(4H)-yl)-2-methylpropanoic acid], the IC50 at ACC1 (read-out: ACC1) and at ACC2 (read-out: ACC2) was below 100 nM each time.

With `COc1ccccc1[C@H](Cn1c(=O)n(C(C)(C)C(=O)N2CCC2)c(=O)c2c(C)c(-c3ncco3)sc21)OC1CCOCC1` [I-247, 3-[1-(azetidin-1-yl)-2-methyl-1-oxopropan-2-yl]-1-[(2R)-2-(2-methoxyphenyl)-2-(oxan-4-yloxy)ethyl]-5-methyl-6-(1,3-oxazol-2-yl)-1H,2H,3H,4H-thieno[2,3-d]pyrimidine-2,4-dione], the IC50 on ACC1 (read-out: ACC1) and at ACC2 (read-out: ACC2) was below 100 nM each time.

For the compound `CCc1ccccc1[C@H](Cn1c(=O)n(C(C)(C)C(=O)O)c(=O)c2c(C)c(-c3ncco3)sc21)OC1CCOCC1` [I-249, 2-[1-[(2R)-2-(2-ethylphenyl)-2-(oxan-4-yloxy)ethyl]-5-methyl-6-(1,3-oxazol-2-yl)-2,4-dioxo-1H,2H,3H,4H-thieno[2,3-d]pyrimidin-3-yl]-2-methylpropanoic acid], the IC50 on ACC1 (read-out: ACC1) and on ACC2 (read-out: ACC2) was below 100 nM each time.

For the compound `COc1ccccc1[C@H](Cn1c(=O)n(C(C)(C)C(=O)O)c(=O)c2c(C)c(-c3ncco3)sc21)OCCO` [I-254, 2-[1-[(2R)-2-(2-hydroxyethoxy)-2-(2-methoxyphenyl)ethyl]-5-methyl-6-(1,3-oxazol-2-yl)-2,4-dioxo-1H,2H,3H,4H-thieno[2,3-d]pyrimidin-3-yl]-2-methylpropanoic acid], the IC50 on ACC1 (read-out: ACC1) and on ACC2 (read-out: ACC2) was below 100 nM throughout.

Take `CCc1ccccc1[C@H](Cn1c(=O)n(C(C)(C)C(=O)O)c(=O)c2c(C)c(-c3ncco3)sc21)OCCO` [I-255, 2-[1-[(2R)-2-(2-ethylphenyl)-2-(2-hydroxyethoxy)ethyl]-5-methyl-6-(1,3-oxazol-2-yl)-2,4-dioxo-1H,2H,3H,4H-thieno[2,3-d]pyrimidin-3-yl]-2-methylpropanoic acid]: the IC50 at ACC1 (read-out: ACC1) and at ACC2 (read-out: ACC2) was below 100 nM in each case.

With `CCOc1ccccc1[C@H](Cn1c(=O)n(C(C)(C)C(=O)O)c(=O)c2c(C)c(-c3ncco3)sc21)OCCO` [I-256, 2-[1-[(2R)-2-(2-ethoxyphenyl)-2-(2-hydroxyethoxy)ethyl]-5-methyl-6-(1,3-oxazol-2-yl)-2,4-dioxo-1H,2H,3H,4H-thieno[2,3-d]pyrimidin-3-yl]-2-methylpropanoic acid], the IC50 at ACC1 (read-out: ACC1) and on ACC2 (read-out: ACC2) was below 100 nM each time.

`COc1ccccc1[C@H](Cn1c(=O)n(C(C)(C)C(=O)O)c(=O)c2c(C)c(-c3ncco3)sc21)OC[C@@H](C)O` [I-258, 2-[1-[(2R)-2-[(2R)-2-hydroxypropoxy]-2-(2-methoxyphenyl)ethyl]-5-methyl-6-(1,3-oxazol-2-yl)-2,4-dioxo-1H,2H,3H,4H-thieno[2,3-d]pyrimidin-3-yl]-2-methylpropanoic acid]: the IC50 on ACC1 (read-out: ACC1) and on ACC2 (read-out: ACC2) was below 100 nM in each case.

For the compound `COc1ccccc1[C@H](Cn1c(=O)n(C(C)(C)C(=O)O)c(=O)c2c(C)c(-c3ncco3)sc21)OCC1CCOCC1` [I-259, 2-[1-[(2R)-2-(2-methoxyphenyl)-2-(oxan-4-ylmethoxy)ethyl]-5-methyl-6-(1,3-oxazol-2-yl)-2,4-dioxo-1H,2H,3H,4H-thieno[2,3-d]pyrimidin-3-yl]-2-methylpropanoic acid], the IC50 at ACC1 (read-out: ACC1) and at ACC2 (read-out: ACC2) was below 100 nM each time.

Consider `COc1ccccc1[C@H](Cn1c(=O)n(C(C)(C)C(N)=O)c(=O)c2c(C)c(-c3ncco3)sc21)OCC1CCOCC1` [I-260, 2-[1-[(2R)-2-(2-methoxyphenyl)-2-(oxan-4-ylmethoxy)ethyl]-5-methyl-6-(1,3-oxazol-2-yl)-2,4-dioxo-1H,2H,3H,4H-thieno[2,3-d]pyrimidin-3-yl]-2-methylpropanamide], for which the IC50 on ACC1 (read-out: ACC1) and at ACC2 (read-out: ACC2) was below 100 nM each time.

For the compound `Cc1c(-c2ncco2)sc2c1c(=O)n(C(C)(C)C(=O)O)c(=O)n2C[C@H](OC1CCOCC1)c1ccccc1OC(F)F` [I-264, 2-[1-[(2R)-2-[2-(difluoromethoxy)phenyl]-2-(oxan-4-yloxy)ethyl]-5-methyl-6-(1,3-oxazol-2-yl)-2,4-dioxo-1H,2H,3H,4H-thieno[2,3-d]pyrimidin-3-yl]-2-methylpropanoic acid], the IC50 on ACC1 (read-out: ACC1) and on ACC2 (read-out: ACC2) was below 100 nM in each case.

As to `Cc1c(-c2ncco2)sc2c1c(=O)n(C(C)(C)C(=O)O)c(=O)n2C[C@H](OC(C)C)c1ccccc1OC(F)F` [I-267, 2-[1-[(2R)-2-[2-(difluoromethoxy)phenyl]-2-(propan-2-yloxy)ethyl]-5-methyl-6-(1,3-oxazol-2-yl)-2,4-dioxo-1H,2H,3H,4H-thieno[2,3-d]pyrimidin-3-yl]-2-methylpropanoic acid], the IC50 on ACC1 (read-out: ACC1) and on ACC2 (read-out: ACC2) was below 100 nM in each case.

In the case of `Cc1c(-c2ncco2)sc2c1c(=O)n(C(C)(C)C(N)=O)c(=O)n2C[C@H](OC(C)C)c1ccccc1OC(F)F` [I-268, 2-[1-[(2R)-2-[2-(difluoromethoxy)phenyl]-2-(propan-2-yloxy)ethyl]-5-methyl-6-(1,3-oxazol-2-yl)-2,4-dioxo-1H,2H,3H,4H-thieno[2,3-d]pyrimidin-3-yl]-2-methylpropanamide], the IC50 on ACC1 (read-out: ACC1) and on ACC2 (read-out: ACC2) was below 100 nM each time.

On to `[2H]C([2H])([2H])Oc1ccccc1[C@H](Cn1c(=O)n(C(C)(C)C(=O)O)c(=O)c2c(C)c(-c3ncco3)sc21)OC1CCOCC1` [I-271, 2-[1-[(2R)-2-[2-(d3)methoxyphenyl]-2-(oxan-4-yloxy)ethyl]-5-methyl-6-(1,3-oxazol-2-yl)-2,4-dioxo-1H,2H,3H,4H-thieno[2,3-d]pyrimidin-3-yl]-2-methylpropanoic acid], for which the IC50 on ACC1 and on ACC2 was below 100 nM each time.

The values above are taken from patent US9453026B2, “ACC inhibitors and uses thereof” (Gilead Apollo, Inc., priority 2011, dated 2016).
